According to patent US10294202B2, “Pyrrolidinones as herbicides” (FMC Corporation, priority 2013, dated 2019):

Tests used:
barnyardgrass [1] = test: Test A pre-/postemergence herbicide test; assay type: in vivo, Echinochloa crus-galli
Procedure, shortened: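 Visual 0–100 ratings (100 = complete control) made about 10 days after treatment, greenhouse-held plants compared with untreated controls. Treatments: postemergence sprays on one- to two-leaf plants (2–10 cm tall) and preemergence directed soil sprays after planting in loam–sand, chemicals formulated in non-phytotoxic solvent containing surfactant.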

blackgrass = test: Test C pre-/postemergence herbicide test; assay type: in vivo, Alopecurus myosuroides
Procedure, shortened: (§1)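 Greenhouse plants scored visually against untreated controls 13–15 days after treatment, 0 = no effect, 100 = complete control. Test chemicals in a non-phytotoxic solvent with surfactant were applied either to soil (loam/sand) at planting or to foliage of 1- to 4-leaf plants, 2–18 cm tall.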

wheat (winter wheat) = test: Test C pre-/postemergence herbicide test; assay type: in vivo, Triticum aestivum
Procedure, shortened: as §1

corn = test: Test C pre-/postemergence herbicide test; assay type: in vivo, Zea mays
Procedure, shortened: as §1

crabgrass, large = test: Test C pre-/postemergence herbicide test; assay type: in vivo, Digitaria sanguinalis
Procedure, shortened: as §1

lambsquarters = test: Test C pre-/postemergence herbicide test; assay type: in vivo, Chenopodium album
Procedure, shortened: as §1

soybean = test: Test C pre-/postemergence herbicide test; assay type: in vivo, Glycine max
Procedure, shortened: as §1

oat, wild = test: Test C pre-/postemergence herbicide test; assay type: in vivo, Avena fatua
Excerpt: Seeds of plant species selected from blackgrass (Alopecurus myosuroides), ryegrass, Italian (Italian ryegrass, Lolium multiflorum), wheat (winter wheat, Triticum aestivum), galium (catchweed bedstraw, Galium aparine), corn (Zea mays), crabgrass, large (large crabgrass, Digitaria sanguinalis), foxtail, giant (giant foxtail, Setaria faberii), johnsongrass (Sorghum halepense), lambsquarters (Chenopodium album), morningglory (Ipomoea coccinea), nutsedge, yellow (yellow nutsedge, Cyperus esculentus), pigweed (Amaranthus retroflexus), ragweed (common ragweed, Ambrosia elatior), soybean (Glycine max), barnyardgrass (Echinochloa crus-galli), oilseed rape (Brassica napus), waterhemp (common waterhemp, Amaranthus rudis), kochia (Kochia scoparia), oat, wild (wild oat, Avena fatua), surinam grass (Brachiaria decumbens), foxtail, green (green foxtail, Setaria viridis), goosegrass (Eleusine indica), bromegrass, downy (downy bromegrass, Bromus tectorum), nightshade (eastern black nightshade, Solanum ptycanthum), cocklebur (common cocklebur, Xanthium strumarium), cupgrass, woolly (woolly cupgrass, Eriochloa villosa), bermudagrass (Cynodon dactylon), sunflower, (common oilseed sunflower, Helianthus annuus), Russian thistle (Salsola kali) and velvetleaf (Abutilon theophrasti) were planted into a blend of loam soil and sand and treated preemergence with test chemicals formulated in a non-phytotoxic solvent mixture which included a surfactant. At the same time, plants selected from these crop and weed species and also barley (winter barley, Hordeum vulgare), […]), chickweed (common chickweed, Stellaria media), deadnettle (henbit deadnettle, Lamium amplexicaule), and canarygrass (littleseed canarygrass, Phalaris minor) were planted in pots containing Redi-Earth® planting medium (Scotts Company, 14111 Scottslawn Road, Marysville, Ohio 43041) comprising spaghnum peat moss, vermiculite, wetting agent and starter nutrients and treated with postemergence applications of test chemicals formulated in the same manner. Plants ranged in height from 2 to 18 cm (1- to 4-leaf stage) for postemergence treatments. Treated plants and controls were maintained in a greenhouse for 13 to 15 days, after which time all species were compared to controls and visually evaluated. Plant response ratings, summarized in Table C, are based on a scale of 0 to 100 where 0 is no effect and 100 is complete control. A dash (-) response means no test result.

velvetleaf = test: Test C pre-/postemergence herbicide test; assay type: in vivo, Abutilon theophrasti
Procedure, shortened: as §1

sedge, umbrella = test: Test B flooded paddy test; assay type: in vivo, Cyperus difformis; conditions: 500 g ai/ha, Flood; scale of 0 to 100 where 0 is no effect and 100 is complete control
Procedure, shortened: (§2)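 Paddy-water application at a 3 cm flood, young plants having two leaves. Water level maintained; greenhouse, 13–15 days; visual 0–100 control rating.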

barnyardgrass [2] = test: Test B flooded paddy test; assay type: in vivo, Echinochloa crus-galli; conditions: 500 g ai/ha, Flood; scale of 0 to 100 where 0 is no effect and 100 is complete control
Procedure, shortened: as §2

[3] = Postemergence, 31 g ai/ha, scale 0 to 100 (0 no effect, 100 complete control)
[4] = Postemergence, 62 g ai/ha, scale 0 (no effect) to 100 (complete control)
[5] = Postemergence, 125 g ai/ha, scale 0 to 100 (0 no effect, 100 complete control)
[6] = Postemergence, 250 g ai/ha, scale 0 to 100 (0 no effect, 100 complete control)
[7] = Preemergence, 31 g ai/ha, scale 0 to 100, 0 is no effect and 100 is complete control
[8] = Preemergence, 62 g ai/ha, scale 0 to 100
[9] = Preemergence, 125 g ai/ha, scale 0 to 100 (0 no effect, 100 complete control)
[10] = Preemergence, 62 g ai/ha, scale 0 to 100 (0 no effect, 100 complete control)
[11] = Postemergence, 500 g ai/ha, 0 to 100 scale (0 no effect, 100 complete control)
[12] = Preemergence, 125 g ai/ha, scale 0 to 100
[13] = Preemergence, 31 g ai/ha, scale 0 to 100 (0 no effect, 100 complete control)
[14] = Preemergence, 250 g ai/ha, scale 0 to 100 (0 no effect, 100 complete control)

## O=C1NC[C@H](c2cccc(C(F)(F)F)c2)[C@H]1C(=O)Nc1cccc(F)c1F [Compound 206]
Barnyardgrass [1]; 125 g ai/ha, visual rating, 0 to 100 scale, 0 no effect, 100 complete control, approximately 10 days, preemergence
  Plant response rating, Barnyardgrass: 90
Barnyardgrass [1]; Postemergence, 125 g ai/ha, 0 to 100 scale, 0 is no effect, 100 is complete control
  Plant response rating, Barnyardgrass: 90
Barnyardgrass [1]; Postemergence, 500 g ai/ha
  Barnyardgrass plant response rating (0 to 100 scale, 0 is no effect, 100 is complete control): 90
Barnyardgrass [1]; preemergence, 500 g ai/ha, 0 to 100 scale, 0 is no effect and 100 is complete control
  Plant response rating, Barnyardgrass: 90
blackgrass; [3]
  Plant response rating, Blackgrass: 0
blackgrass; [4]
  Plant response rating, Blackgrass: 0
blackgrass; [5]
  Plant response rating, Blackgrass: 40
blackgrass; [6]
  Plant response rating, Blackgrass: 60
blackgrass; [7]
  Blackgrass plant response rating: 85
blackgrass; [8]
  Plant response rating, Blackgrass: 90
blackgrass; [9]
  Plant response rating, Blackgrass: 90
blackgrass; Preemergence, 250 g ai/ha
  Plant response rating (scale of 0 to 100), Blackgrass: 90
Wheat (winter wheat); [3]
  Plant response rating, Wheat: 0
Wheat (winter wheat); [4]
  Plant response rating, Wheat: 0
Wheat (winter wheat); [5]
  Plant response rating, Wheat: 30
Wheat (winter wheat); [6]
  Plant response rating, Wheat: 45
Wheat (winter wheat); [7]
  Wheat plant response rating: 35
Wheat (winter wheat); [10]
  Wheat plant response rating: 40
Wheat (winter wheat); [9]
  Plant response rating, Wheat: 70
Wheat (winter wheat); Preemergence, 250 g ai/ha
  Plant response rating (scale of 0 to 100), Wheat: 70
corn; [3]
  Plant response rating, Corn: 0
corn; [4]
  Plant response rating, Corn: 0
corn; [5]
  Plant response rating, Corn: 30
corn; [6]
  Plant response rating, Corn: 50
corn; [7]
  Corn plant response rating: 30
corn; [10]
  Corn plant response rating: 60
corn; [9]
  Plant response rating, Corn: 65
corn; Preemergence, 250 g ai/ha
  Plant response rating (scale of 0 to 100), Corn: 60
crabgrass, large; [3]
  Plant response rating, Crabgrass, Large: 45
crabgrass, large; [4]
  Plant response rating, Crabgrass, Large: 50
crabgrass, large; [5]
  Plant response rating, Crabgrass, Large: 70
crabgrass, large; [6]
  Plant response rating, Crabgrass, Large: 80
crabgrass, large; [7]
  Crabgrass, Large plant response rating: 90
crabgrass, large; [10]
  Crabgrass, Large plant response rating: 90
crabgrass, large; [9]
  Plant response rating, Crabgrass, Large: 95
crabgrass, large; Preemergence, 250 g ai/ha
  Plant response rating (scale of 0 to 100), Crabgrass, Large: 95
lambsquarters; [3]
  Plant response rating, Lambsquarters: 50
lambsquarters; [4]
  Plant response rating, Lambsquarters: 75
lambsquarters; [5]
  Plant response rating, Lambsquarters: 10
lambsquarters; [6]
  Plant response rating, Lambsquarters: 20
lambsquarters; [7]
  Lambsquarters plant response rating: 75
lambsquarters; [10]
  Lambsquarters plant response rating: 100
lambsquarters; [9]
  Plant response rating, Lambsquarters: 100
lambsquarters; Preemergence, 250 g ai/ha
  Plant response rating (scale of 0 to 100), Lambsquarters: 100
soybean; [3]
  Plant response rating, Soybean: 5
soybean; [4]
  Plant response rating, Soybean: 5
soybean; [5]
  Plant response rating, Soybean: 5
soybean; [6]
  Plant response rating, Soybean: 5
soybean; [7]
  Soybean plant response rating: 0
soybean; [10]
  Soybean plant response rating: 0
soybean; [9]
  Plant response rating, Soybean: 0
soybean; Preemergence, 250 g ai/ha
  Plant response rating (scale of 0 to 100), Soybean: 0
oat, wild; [3]
  Plant response rating, Oat, Wild: 0
oat, wild; [4]
  Plant response rating, Oat, Wild: 5
oat, wild; [5]
  Plant response rating, Oat, Wild: 45
oat, wild; [6]
  Plant response rating, Oat, Wild: 50
velvetleaf; [3]
  Plant response rating, Velvetleaf: 0
velvetleaf; [4]
  Plant response rating, Velvetleaf: 0
velvetleaf; [5]
  Plant response rating, Velvetleaf: 15
velvetleaf; [6]
  Plant response rating, Velvetleaf: 15
velvetleaf; [7]
  Velvetleaf plant response rating: 0
velvetleaf; [10]
  Velvetleaf plant response rating: 50
velvetleaf; [9]
  Plant response rating, Velvetleaf: 40
velvetleaf; Preemergence, 250 g ai/ha
  Plant response rating (scale of 0 to 100), Velvetleaf: 60

## CC(C)c1cccc(C2CNC(=O)C2C(=O)Nc2ccccc2F)c1 (centres unmarked) [Compound 318]
Barnyardgrass [1]; Postemergence, 125 g ai/ha, visual rating on 0 to 100 scale (0 no effect, 100 complete control), approx. 10 days
  Plant response rating, Barnyardgrass: 90
Barnyardgrass [1]; [11]
  Plant response rating, Barnyardgrass: 90
Barnyardgrass [1]; Preemergence, 125 g ai/ha, 0 to 100 scale where 0 is no effect and 100 is complete control
  Plant response rating, Barnyardgrass: 90
Barnyardgrass [1]; Preemergence, 500 g ai/ha, visual rating on 0 to 100 scale (0 no effect, 100 complete control)
  Barnyardgrass plant response rating: 90
sedge, umbrella
  Plant response rating, Sedge, Umbrella: 0
Barnyardgrass [2]
  Plant response rating, Barnyardgrass: 75
blackgrass; [7]
  Blackgrass plant response rating: 0
blackgrass; [10]
  Blackgrass plant response rating: 0
blackgrass; [12]
  Plant response rating, Blackgrass: 30
blackgrass; Preemergence, 250 g ai/ha
  Plant response rating (scale of 0 to 100), Blackgrass: 45
Wheat (winter wheat); [10]
  Wheat plant response rating: 0
Wheat (winter wheat); [12]
  Plant response rating, Wheat: 5
corn; [7]
  Corn plant response rating: 0
corn; [10]
  Corn plant response rating: 0
corn; [12]
  Plant response rating, Corn: 10
corn; Preemergence, 250 g ai/ha
  Plant response rating (scale of 0 to 100), Corn: 60
crabgrass, large; [7]
  Crabgrass, Large plant response rating: 95
crabgrass, large; [10]
  Crabgrass, Large plant response rating: 98
crabgrass, large; [12]
  Plant response rating, Crabgrass, Large: 98
crabgrass, large; Preemergence, 250 g ai/ha
  Plant response rating (scale of 0 to 100), Crabgrass, Large: 100
lambsquarters; [7]
  Lambsquarters plant response rating: 10
lambsquarters; [10]
  Lambsquarters plant response rating: 55
lambsquarters; [12]
  Plant response rating, Lambsquarters: 50
lambsquarters; Preemergence, 250 g ai/ha
  Plant response rating (scale of 0 to 100), Lambsquarters: 60
soybean; [10]
  Soybean plant response rating: 0
soybean; [12]
  Plant response rating, Soybean: 0
velvetleaf; [10]
  Velvetleaf plant response rating: 10
velvetleaf; [12]
  Plant response rating, Velvetleaf: 25

## O=C1NCC(c2ccc(Cl)c(Cl)c2)C1C(=O)Nc1ccccc1F (racemic) [Compound 14]
Barnyardgrass [1]; Postemergence, 125 g ai/ha, 0 to 100 scale, 0 no effect, 100 complete control
  Plant response rating, Barnyardgrass: 60
Barnyardgrass [1]; [11]
  Plant response rating, Barnyardgrass: 80
Barnyardgrass [1]; Preemergence, 125 g ai/ha, visual rating on 0 to 100 scale (0 no effect, 100 complete control)
  Barnyardgrass plant response rating: 80
Barnyardgrass [1]; preemergence, 500 g ai/ha, 0 to 100 scale (0 no effect, 100 complete control)
  Plant response rating, Barnyardgrass: 90
blackgrass; [8]
  Plant response rating, Blackgrass: 0
blackgrass; [9]
  Plant response rating, Blackgrass: 0
blackgrass; [13]
  Blackgrass plant response rating: 0
blackgrass; [14]
  Plant response rating, Blackgrass: 0
Wheat (winter wheat); [8]
  Plant response rating, Wheat: 10
Wheat (winter wheat); [9]
  Plant response rating, Wheat: 10
corn; [8]
  Plant response rating, Corn: 0
corn; [9]
  Plant response rating, Corn: 0
corn; [13]
  Corn plant response rating: 0
corn; [14]
  Plant response rating, Corn: 0
crabgrass, large; [8]
  Plant response rating, Crabgrass, Large: 98
crabgrass, large; [9]
  Plant response rating, Crabgrass, Large: 98
crabgrass, large; [13]
  Crabgrass, Large plant response rating: 90
crabgrass, large; [14]
  Plant response rating, Crabgrass, Large: 100
soybean; [8]
  Plant response rating, Soybean: 0
soybean; [9]
  Plant response rating, Soybean: 0
oat, wild; [8]
  Plant response rating, Oat, Wild: 0
oat, wild; [9]
  Plant response rating, Oat, Wild: 0
velvetleaf; [8]
  Plant response rating, Velvetleaf: 0
velvetleaf; [9]
  Plant response rating, Velvetleaf: 0
